Measurements from patent US20220177476A1, “Crystal Forms of (S)-4-(8-amino-3-(1-(but-2-ynoyl)-pyrrolidin-2-yl)imidazo[1,5-a]pyrazin-1-yl)-n-(pyridin-2-yl)benzamide” (Acerta Pharma B.V., priority 2015, published 2022).
In brackets after ≈: the same amount, converted by molar mass.

Key:
[1] = Solubility of Form I by HPLC in solvents and water-solvent mixtures; type: physicochemical; settings: for solubility: organic solvent or mixture, thermodynamic from solid, read-out: Solubility (S, mg/mL)
Description: The solubility of recrystallized Formula (1) Form I was tested in various water-solvent mixtures and non-aqueous solvents.

[2] = Plasma exposure after single oral administration in fasted beagle dogs; type: in vivo; settings: nine fasted beagle dogs, single oral administration of 6 mg/kg, oral capsule
Description: The plasma exposure of Forms I and II of the free base of Formula (1) were compared in nine fasted beagle dogs after a single oral administration of 6 mg/kg of either form using batches with a similar particle size distribution. The experiment was performed in 5 weekly phases, with the Form II phase last. […] There was a good in vitro in vivo correlation for the dissolution rates of Form 1 and Form II, and the performance of each form of Formula (1) when delivered by oral capsule to dogs.

[3] = Dynamic vapor sorption (DVS); type: physicochemical; settings: DVS
Description: A gravimetric vapor sorption study was run using a standard procedure. Samples were run using a dynamic vapor sorption (DVS) analyzer. Sample sizes were approximately 10 mg. A moisture adsorption-desorption isotherm was performed as outlined below.

[4] = Human Phase 1 interaction study of calcium carbonate, omeprazole, or rifampin on Formula (1); type: in vivo; settings: healthy adult subjects, acid reducing agents prior to administration
[5] = Intrinsic dissolution rate (paddle over stationary disc); type: physicochemical
Description: The intrinsic dissolution rate (IDR) was measured for Forms I and II of the free base of Formula (1). IDR was measured using a paddle over stationary disc equipped dissolution apparatus with concentration determined using liquid chromatographic analysis against a standard. […] Form I has an IDR of 6.8 mg/cm^2/min in simulated gastric fluid (SGF) (pH 1.2) and an IDR of 0.44 mg/cm^2/min in pH 2.5 HCl/NaCl buffer. Form II has an IDR of 5.4 mg/cm^2/min in SGF and an IDR of 0.35 mg/cm^2/min in pH 2.5 HCl/NaCl buffer.

[6] = Approximate solubility of Form I by stepwise dilution of a suspension; type: physicochemical; settings: thermodynamic from solid, read-out: Solubility [S, mg/mL]
Description: Form I was also tested with respect to solubilities in various water-solvent mixtures and non-aqueous solvents. Solubility studies were conducted by a stepwise dilution of a suspension of about 10 mg of Form I in 0.1 mL of analytical grade solvent. Solubility values are estimated approximations and are subject to variable experimental error.

[7] = Aqueous solubility after equilibrating at 25° C. for three days (HPLC); type: physicochemical; settings: water, 25° C., three days
Description: Finally, Form II was tested with respect to solubilities in various water-solvent mixtures and non-aqueous solvents. […] High-performance liquid chromatography (HPLC) was used to determine the concentration of Form II in the filtered solution at approximately 14 μg/mL, which translates into a critical water activity (aw) of about 0.59.

[8] = Relative stability of solid forms (water activity, suspension equilibration, storage); type: physicochemical
Excerpt: Critical water activity is a measure of the relative thermodynamic stability of Form I in comparison to the trihydrate Form II. […] Suspension equilibration experiments in ethanol-water mixtures, each having a different water activity, affirmed this conclusion. Water activities included in the experiments were maintained at: about 0.35 (ethanol-water ratio of 95:5, PP502-P32), about 0.53 (ethanol-water ratio of 9:1, PP502-P33) and about 0.77 (ethanol-water ratio of 7:3, PP502-P34).
Because the DVS results of Form II indicate reversible moisture sorption-desorption behavior (see above), tests were performed to confirm that storage of the dehydrated Form II sample (i.e., Form IV) at about 60% RH would again lead to the trihydrate form (Form II). […]

CC#CC(=O)N1CCC[C@H]1c1nc(-c2ccc(C(=O)Nc3ccccn3)cc2)c2c(N)nccn12 [Form I, (S)-4-(8-amino-3-(1-(but-2-ynoyl)pyrrolidin-2-yl)imidazo[1,5-α]pyrazin-1-yl)-N-(pyridin-2-yl)benzamide]
Solubility (S, mg/mL) ([1]; 1-propanol, 25° C.): 4.0 mg/mL (≈ 8.59 mM) | Solubility (S, mg/mL) ([1]; ethyl acetate, 25° C.): 1.5 mg/mL (≈ 3.22 mM) | solubility ([1]; 1-propanol, 5° C.): 3.4 mg/mL (≈ 7.3 mM) | solubility ([1]; 1-propanol, 60° C.): 14.4 mg/mL (≈ 30.9 mM) | solubility ([1]; 1-propanol, r.t.): 4.7 mg/mL (≈ 10.1 mM) | solubility ([1]; 2-propanol, 25° C.): 1.3 mg/mL (≈ 2.79 mM) | solubility ([1]; MEK, 25° C.): 3.7 mg/mL (≈ 7.95 mM) | solubility ([1]; THF, 25° C.): 20.4 mg/mL (≈ 43.8 mM) | solubility ([1]; acetone at RFT): 10 mg/mL (≈ 21.5 mM) | solubility ([1]; acetone, 25° C.): 4.1 mg/mL (≈ 8.81 mM) | solubility ([1]; ethanol, 5° C.): 3.6 mg/mL (≈ 7.73 mM) | solubility ([1]; ethanol, 25° C.): 4.4 mg/mL (≈ 9.45 mM) | solubility ([1]; ethanol, 50° C.): 10.2 mg/mL (≈ 21.9 mM) | solubility ([1]; ethanol-water 9:1, 25° C.): 23.7 mg/mL (≈ 50.9 mM) | solubility ([1]; ethanol-water 96:4, 0° C.): 6.7 mg/mL (≈ 14.4 mM) | solubility ([1]; ethanol-water 96:4, 25° C.): 10 mg/mL (≈ 21.5 mM) | solubility ([1]; ethanol-water 96:4, 60° C.): 24.7 mg/mL (≈ 53.1 mM) | solubility ([1]; methanol, 25° C.): 19.9 mg/mL (≈ 42.7 mM) | exposure [2]: higher exposure in the beagle than Form II | hygroscopicity (DVS), in words [3]: not hygroscopic | total weight gain observed between 0% RH and 80% RH [3]: about 0.17% | water content at 50% RH [3]: approximately 0.25% | water absorption within the timeframe of the test ([3]; at 95% RH): less than 0.3% | hygroscopicity according to the European Pharmacopoeia (EP) classification ([3]; weight increase at 80% RH): non-hygroscopic (non-hygroscopic: <0.2%) | maximum water content (saturation) at about 95% RH ([3]; listed as recrystallized Formula (1)): approximately 0.5% | exposure after treatment with acid reducing agents [4]: significant decreases in exposure | increase in IDR relative to Form II ([5]; at both conditions (SGF and pH 2.5 buffer)): ~26% | intrinsic dissolution rate (IDR) ([5]; pH 2.5 HCl/NaCl buffer): 0.44 mg/cm^2/min | intrinsic dissolution rate (IDR) ([5]; simulated gastric fluid (SGF) (pH 1.2)): 6.8 mg/cm^2/min | solubility ([6]; 2-propanol, organic solvent or mixture): < 1 mg/mL | solubility ([6]; MEK saturated with water, organic solvent or mixture): 26 to 30 mg/mL (≈ 55.9 to 64.4 mM) | solubility ([6]; THF:water 9:1, organic solvent or mixture): > 50 mg/mL | solubility ([6]; acetic acid, organic solvent or mixture): 102 to 204 mg/mL (≈ 219 to 438 mM) | solubility ([6]; acetic acid:MEK 1:9, organic solvent or mixture): 63 to 95 mg/mL (≈ 135 to 204 mM) | solubility ([6]; acetic acid:ethyl acetate 1:1, organic solvent or mixture): 92 to 184 mg/mL (≈ 198 to 395 mM) | solubility ([6]; acetic acid:ethyl acetate 1:9, organic solvent or mixture): 60 to 90 mg/mL (≈ 129 to 193 mM) | solubility ([6]; acetic acid:isopropanol 1:9, organic solvent or mixture): ~4 mg/mL (≈ 8.59 mM) | solubility ([6]; acetic acid:water 1:1, aqueous with cosolvent or surfactant or cyclodextrin): 104 to 208 mg/mL (≈ 223 to 447 mM) | solubility ([6]; acetone, organic solvent or mixture): ~2 mg/mL (≈ 4.3 mM) | solubility ([6]; acetone:water 4:1, organic solvent or mixture): 26 to 31 mg/mL (≈ 55.9 to 66.6 mM) | solubility ([6]; acetonitrile, organic solvent or mixture): < 1 mg/mL | solubility ([6]; ethanol, organic solvent or mixture): ~3 mg/mL (≈ 6.44 mM) | solubility ([6]; ethanol:water 1:1, aqueous with cosolvent or surfactant or cyclodextrin): ~6 mg/mL (≈ 12.9 mM) | solubility ([6]; ethanol:water 95:5, organic solvent or mixture): ~8 mg/mL (≈ 17.2 mM) | solubility ([6]; ethyl acetate, organic solvent or mixture): < 1 mg/mL | solubility ([6]; formic acid, organic solvent or mixture): 97 to 194 mg/mL (≈ 208 to 417 mM) | solubility ([6]; methanol, organic solvent or mixture): ~14 mg/mL (≈ 30.1 mM) | solubility ([6]; methanol:water 9:1, organic solvent or mixture): ~15 mg/mL (≈ 32.2 mM) | solubility ([6]; organic solvent or mixture, 2-butanone, MEK): < 1 mg/mL | solubility ([6]; organic solvent or mixture, N,N-dimethylformamide, DMF): 49 to 65 mg/mL (≈ 105 to 140 mM) | solubility ([6]; organic solvent or mixture, N-methyl-2-pyrrolidone, NMP): 39 to 49 mg/mL (≈ 83.8 to 105 mM) | solubility ([6]; organic solvent or mixture, dichloromethane, DCM): 36 to 43 mg/mL (≈ 77.3 to 92.4 mM) | solubility ([6]; organic solvent or mixture, dimethyl sulfoxide, DMSO): 39 to 49 mg/mL (≈ 83.8 to 105 mM) | solubility ([6]; organic solvent or mixture, ethanol:water 9:1 at 60° C.): > 60 mg/mL | solubility ([6]; organic solvent or mixture, methanol:MEK 1:1 at reflux): > 90 mg/mL | solubility ([6]; organic solvent or mixture, tetrahydrofuran, THF): ~5 mg/mL (≈ 10.7 mM) | solubility ([6]; trifluoroethane, organic solvent or mixture): 97 to 194 mg/mL (≈ 208 to 417 mM) | solid residue after aqueous solubility test (PXRD) [7]: Form I was retained | form recovered after suspension equilibration in methanol ([8]; 5° C., methanol, mixture of Forms (I), VI, and VII, five days): pure Form I was recovered | relative thermodynamic stability of Form I and Form II ([8]; room temperature, depending on water activity): Below an aw of about 0.59, Form I is more stable
